Measurements published in PubChem BioAssay (NCI).
Values joined by “and” are separate entries in the source; they are usually repeats but may differ in a detail not shown here. Equal values may be shown once.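 Following 48 hours of exposure in 96-well plates, responses at five concentrations were used to interpolate endpoints linearly. GI50 marks 50% less growth. Definition used: TGI = concentration required for complete inhibition of growth.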

Legend:
Test in all cases: DTP human tumour cell line panel, 48 h
NCI-H23 lung = tested on: NCI-H23 lung
SW-620 colon = tested on: SW-620 colon
MDA-MB-435 = tested on: MDA-MB-435
ACHN renal = tested on: ACHN renal
NCI-H460 lung = tested on: NCI-H460 lung
UACC-62 melanoma = tested on: UACC-62 melanoma
CAKI-1 renal = tested on: CAKI-1 renal
HCT-116 colon = tested on: HCT-116 colon
OVCAR-5 ovarian = tested on: OVCAR-5 ovarian
HCC-2998 colon = tested on: HCC-2998 colon

O=S(=O)(O)c1ccc(-c2nnc(-c3ccccn3)nc2-c2ccc(S(=O)(=O)O)o2)o1
TGI (NCI-H23 lung): > 100 µM
TGI (SW-620 colon): > 100 µM
TGI (MDA-MB-435): > 100 µM
TGI (ACHN renal): > 100 µM
TGI (NCI-H460 lung): > 100 µM
TGI (UACC-62 melanoma): > 100 µM
TGI (CAKI-1 renal): > 100 µM
TGI (HCT-116 colon): > 100 µM
TGI (OVCAR-5 ovarian): > 100 µM

Cc1ccc(C)c(NC(=O)NCc2ccc(Cl)cc2)c1
TGI (NCI-H23 lung): > 100 µM
TGI (SW-620 colon): > 100 µM
TGI (MDA-MB-435): > 100 µM
TGI (ACHN renal): > 90.7 µM
TGI (NCI-H460 lung): > 100 µM
TGI (UACC-62 melanoma): > 100 µM
TGI (CAKI-1 renal): > 100 µM
TGI (HCT-116 colon): > 100 µM
TGI (OVCAR-5 ovarian): > 100 µM

O=c1cccccc1NCCCCCCNc1cccccc1=O
TGI (NCI-H23 lung): > 100 µM
TGI (SW-620 colon): > 100 µM
TGI (ACHN renal): > 100 µM
TGI (NCI-H460 lung): > 100 µM
TGI (UACC-62 melanoma): > 100 µM
TGI (CAKI-1 renal): > 100 µM
TGI (HCT-116 colon): > 100 µM
TGI (OVCAR-5 ovarian): > 100 µM
TGI (HCC-2998 colon): > 100 µM

O=C([O][Hg][CH2]C1COC([CH2][Hg][O]C(=O)c2ccccc2)CO1)c1ccccc1 (configuration not stated)
GI50 (NCI-H23 lung): 9.82 µM
TGI (NCI-H23 lung): 23.3 µM
GI50 (SW-620 colon): 1.64 µM
TGI (SW-620 colon): 3.04 µM
GI50 (ACHN renal): 8.92 µM and 1.67 µM
TGI (ACHN renal): 20.7 µM and 3.08 µM
GI50 (NCI-H460 lung): 17.3 µM and 3.49 µM
TGI (NCI-H460 lung): 33.4 µM and 21.6 µM
GI50 (UACC-62 melanoma): 16.7 µM and 2.26 µM
TGI (UACC-62 melanoma): 30.4 µM and 5.09 µM
GI50 (CAKI-1 renal): 3.38 µM
TGI (CAKI-1 renal): 6.76 µM
GI50 (HCT-116 colon): 4.24 µM and 1.39 µM
TGI (HCT-116 colon): 14.7 µM and 2.68 µM
GI50 (OVCAR-5 ovarian): 18 µM
TGI (OVCAR-5 ovarian): 31.9 µM
GI50 (HCC-2998 colon): 17.6 µM and 3.65 µM
TGI (HCC-2998 colon): 32.2 µM and 9.35 µM

CCOC(=O)C1=C(O)CSC1=Nc1ccccc1
TGI (NCI-H23 lung): > 100 µM
TGI (SW-620 colon): > 100 µM
TGI (ACHN renal): > 100 µM
TGI (NCI-H460 lung): > 100 µM
TGI (UACC-62 melanoma): > 100 µM
TGI (CAKI-1 renal): > 100 µM
TGI (HCT-116 colon): > 100 µM
TGI (OVCAR-5 ovarian): > 100 µM
TGI (HCC-2998 colon): > 100 µM

CC/C(=C(/CC)c1ccc([O-])cc1)c1ccc([O-])cc1.CC/C(=C(\CC)c1ccc([O-])cc1)c1ccc([O-])cc1.O=C([CH-]C(=O)c1ccccc1)c1ccccc1.O=C([CH-]C(=O)c1ccccc1)c1ccccc1.O=C([CH-]C(=O)c1ccccc1)c1ccccc1.O=C([CH-]C(=O)c1ccccc1)c1ccccc1.[Ti+4].[Ti+4]
GI50 (NCI-H23 lung): 25.9 µM
TGI (NCI-H23 lung): 97.3 µM
GI50 (SW-620 colon): 21.4 µM
TGI (SW-620 colon): 51.6 µM
GI50 (ACHN renal): 35.2 µM
TGI (ACHN renal): > 100 µM
GI50 (NCI-H460 lung): 25.2 µM
TGI (NCI-H460 lung): > 100 µM
GI50 (UACC-62 melanoma): 18.9 µM
TGI (UACC-62 melanoma): 52.4 µM
GI50 (CAKI-1 renal): 23.5 µM
TGI (CAKI-1 renal): 58.5 µM
GI50 (HCT-116 colon): 28.8 µM
TGI (HCT-116 colon): > 100 µM
GI50 (OVCAR-5 ovarian): 45.8 µM
TGI (OVCAR-5 ovarian): > 100 µM
GI50 (HCC-2998 colon): 45.7 µM
TGI (HCC-2998 colon): > 100 µM

CC1(C)CCc2cc3c(cc2O1)OCC1c2cc4c(cc2OC31)OCO4 (configuration not stated)
TGI (NCI-H23 lung): > 100 µM
TGI (SW-620 colon): > 100 µM
TGI (ACHN renal): > 100 µM
TGI (NCI-H460 lung): > 100 µM
TGI (UACC-62 melanoma): > 100 µM
TGI (CAKI-1 renal): > 100 µM
TGI (HCT-116 colon): > 100 µM
TGI (OVCAR-5 ovarian): > 100 µM
TGI (HCC-2998 colon): > 100 µM

CC(C)(C)c1[nH]cnc1/C=c1\[nH]c(=O)/c(=C/c2ccccc2)[nH]c1=O
GI50 (NCI-H23 lung): 0.03 µM
TGI (NCI-H23 lung): 35.2 µM
GI50 (SW-620 colon): < 0.01 µM
TGI (SW-620 colon): 50.7 µM
GI50 (ACHN renal): < 0.01 µM
TGI (ACHN renal): 35.7 µM
GI50 (NCI-H460 lung): < 0.01 µM
TGI (NCI-H460 lung): 17.7 µM
GI50 (UACC-62 melanoma): < 0.01 µM
TGI (UACC-62 melanoma): 21.2 µM
GI50 (CAKI-1 renal): < 0.01 µM
TGI (CAKI-1 renal): 32.7 µM
GI50 (HCT-116 colon): < 0.01 µM
TGI (HCT-116 colon): 15.4 µM
GI50 (OVCAR-5 ovarian): 0.0335 µM
TGI (OVCAR-5 ovarian): 86.1 µM
GI50 (HCC-2998 colon): 0.0307 µM
TGI (HCC-2998 colon): 33.1 µM

O=C(c1cc2ccccc2o1)N(Cc1ccccc1)c1ccccc1
TGI (NCI-H23 lung): 71.2 µM
TGI (SW-620 colon): 32.4 µM
TGI (ACHN renal): > 100 µM
TGI (NCI-H460 lung): 78.6 µM
TGI (UACC-62 melanoma): 28.1 µM
TGI (CAKI-1 renal): 55.5 µM
TGI (HCT-116 colon): 31.9 µM
TGI (OVCAR-5 ovarian): > 100 µM
TGI (HCC-2998 colon): 46.1 µM

CC(=O)c1cccc(NC(=O)C(=O)C(C2OC(=O)c3ccccc32)[N+](=O)[O-])c1 (configuration not stated)
TGI (NCI-H23 lung): > 100 µM
TGI (SW-620 colon): > 100 µM
TGI (ACHN renal): > 100 µM
TGI (NCI-H460 lung): > 100 µM
TGI (UACC-62 melanoma): > 100 µM
TGI (CAKI-1 renal): > 100 µM
TGI (HCT-116 colon): > 100 µM
TGI (OVCAR-5 ovarian): > 100 µM
TGI (HCC-2998 colon): > 100 µM

Cc1c(C(=O)C/C(=N/NC(=O)C[n+]2ccccc2)C(=O)Nc2ccccc2)[n+](=O)c2ccccc2n1O
TGI (NCI-H23 lung): > 100 µM
TGI (SW-620 colon): > 100 µM
TGI (ACHN renal): > 100 µM
TGI (NCI-H460 lung): > 100 µM
TGI (UACC-62 melanoma): > 100 µM
TGI (CAKI-1 renal): > 100 µM
TGI (HCT-116 colon): > 100 µM
TGI (OVCAR-5 ovarian): > 100 µM
TGI (HCC-2998 colon): > 100 µM

CCCC[N+](CCCC)=c1ccc2nc3c(C)cc(N(CC)CC)cc3sc-2c1
GI50 (NCI-H23 lung): 0.0601 µM
TGI (NCI-H23 lung): 1.04 µM
GI50 (SW-620 colon): 0.245 µM
TGI (SW-620 colon): 1.58 µM
GI50 (MDA-MB-435): 0.205 µM
TGI (MDA-MB-435): 1.2 µM
GI50 (ACHN renal): 0.187 µM
TGI (ACHN renal): 1.06 µM
GI50 (UACC-62 melanoma): 0.29 µM
TGI (UACC-62 melanoma): 1.77 µM
GI50 (CAKI-1 renal): 0.183 µM
TGI (CAKI-1 renal): 1.1 µM
GI50 (OVCAR-5 ovarian): 0.349 µM
TGI (OVCAR-5 ovarian): 1.61 µM

O=C1c2ccccc2C(=O)c2c(NCCNCCO)ccc(O)c21
TGI (NCI-H23 lung): 12 µM
TGI (SW-620 colon): 12.9 µM
TGI (ACHN renal): 11.2 µM
TGI (NCI-H460 lung): 6.85 µM
TGI (UACC-62 melanoma): 13.6 µM
TGI (CAKI-1 renal): 11.5 µM
TGI (HCT-116 colon): 12.9 µM
TGI (OVCAR-5 ovarian): 8.33 µM
TGI (HCC-2998 colon): 17.8 µM

Oc1ccc(O)c(-c2cc(-c3ccccc3)nn2-c2ccccc2)c1
GI50 (NCI-H23 lung): 14.3 µM
TGI (NCI-H23 lung): 32.5 µM
GI50 (SW-620 colon): 26 µM
TGI (SW-620 colon): > 100 µM
GI50 (MDA-MB-435): 18.4 µM
TGI (MDA-MB-435): > 100 µM
GI50 (ACHN renal): 14.4 µM
TGI (ACHN renal): 29.7 µM
GI50 (NCI-H460 lung): 24.8 µM
TGI (NCI-H460 lung): > 100 µM
GI50 (UACC-62 melanoma): 11.9 µM
TGI (UACC-62 melanoma): 44.9 µM
GI50 (CAKI-1 renal): 30.6 µM
TGI (CAKI-1 renal): > 100 µM
GI50 (HCT-116 colon): 9.71 µM
TGI (HCT-116 colon): 21.8 µM
GI50 (OVCAR-5 ovarian): 10.6 µM
TGI (OVCAR-5 ovarian): 27 µM
